Reference: patent US20260223847A1, “Compounds for Increasing Frost Tolerance in Plants” (VIB VZW, priority 2023, published 2026)

How the values were obtained:
Assay type in all cases: in vivo
[1] = test system: Arabidopsis Col-0 seedlings; test: Arabidopsis hypocotyl elongation (growth) assay; conditions: long day (LD: 16/8 h) conditions
Description: FIG. 1: Left: hypocotyl length of Arabidopsis Col-0 seedlings germinated on solid ½MS medium for 4 days and then transferred for 3 more days to liquid ½MS supplemented with a range of concentrations of A68. Right: primary root length of Arabidopsis Col-0 seedlings grown on solid ½MS medium supplemented with a range of concentrations of A68 for 12 days. FIG. 2: Effects of A68 and its related variants on the Arabidopsis hypocotyl elongation. Arabidopsis seedlings were grown on solid ½MS medium for 4 days and then transferred for 3 more days to liquid ½ MS supplemented with the studied compounds at either 0.5 or 50 μM final concentration. Hypocotyl length is represented relative to that of mock-treated seedlings from the same biological repeats. n>400 seedlings for DMSO and A68 initial hit (control treatments throughout the experiments), n>30 seedlings for the A68 variants. Student's two-sample t-test, *P<0.05, **P<0.01 and ***P<0.001. FIG. 3: Hypocotyl elongation dose-response curves for A68 and three bioactive variants A68-6, A68-8 and A68-53 showing the half-maximum effective concentration EC50. A bioactive compound, herein further designated as A68, was identified by screening a commercial 10,000 compound library (DIVERSet, ChemBridge Corporation) for hypocotyl elongation phenotype at a final concentration of 50 μM in 2% DMSO. […]

[2] = test system: Arabidopsis Col-0 seedlings; test: Arabidopsis primary root growth / lateral root number; conditions: long day (LD: 16/8 h) conditions
Text: FIG. 1: Left: hypocotyl length of Arabidopsis Col-0 seedlings germinated on solid ½MS medium for 4 days and then transferred for 3 more days to liquid ½MS supplemented with a range of concentrations of A68. Right: primary root length of Arabidopsis Col-0 seedlings grown on solid ½MS medium supplemented with a range of concentrations of A68 for 12 days. A bioactive compound, herein further designated as A68, was identified by screening a commercial 10,000 compound library (DIVERSet, ChemBridge Corporation) for hypocotyl elongation phenotype at a final concentration of 50 μM in 2% DMSO. A68 promotes hypocotyl elongation, while suppresses primary root growth but increases lateral root number under long day (LD: 16/8 h) conditions (see FIG. 1).

Arabidopsis seedlings = test: Osmotic stress tolerance in Arabidopsis seedlings (sorbitol); conditions: low concentrations; ½MS with sorbitol
Description: FIGS. 4A-4D: Effect of A68 and its variant A68-6 on Arabidopsis growth in osmotic stress conditions. The two compounds were tested at 3 different concentrations in ½MS without sucrose supplemented with 100 mM sorbitol. The extent of stress tolerance in presence of the small molecules was estimated by following the rosette size (FIG. 4A) as well as root related parameters, such as the total (FIG. 4B) and main (FIG. 4C) root length and lateral root number (FIG. 4D). Results are presented relative to the mock-treated control (0.005% DMSO). FIGS. 5A-5D: Effect of A68-6 on Arabidopsis growth in osmotic stress conditions. The compound was tested at 3 different concentrations in ½MS without sucrose supplemented with 200 mM sorbitol. The extent of stress tolerance in presence of the small molecules was estimated by following the rosette size (FIG. 5A) as well as root related parameters, such as the total (FIG. 5B) and main (FIG. 5C) root length and lateral root number (FIG. 5D). Results are presented relative to the mock-treated control (0.005% DMSO).

[3] = test system: Strawberry, Fragaria ananasa, cv. Elsanta; test: Efficacy trial against frost damage on strawberry (trial 22.RM.SAB.028)
Text: Preparation of the agronomical formulation: compound A68 is suspended in acetone at a concentration of 1 g/l. Further in this example this suspension is designated as 22.SC.040.
Trial setup: Strawberry, Fragaria ananasa, tray plants cv. Elsanta were planted in P13 pots, 1 plant per pot. The used substrate was a standard strawberry-substrate with addition of 180 g Osmocoat/651 substrate. (Osmocoat 18-5-11+4CaO+2MgO Agroblen 3-4 months).
36 plants (6 objects×6 repetitions) were randomly placed on tables with eb-flood system (21 l/2.5 m2 during 10 minutes, 2×/24 hours) in the greenhouse (22° C./10° C. day/night; 50% RH).
Foliar applications were executed in a standardized spraying cabin. A nozzle (Albuz TVI, color green) moved over the plants with a constant speed, simulating a spraying volume of 300l/ha.
At full bloom of the first flower branch, these branches were marked with a plastic strip. The plants were placed on pallets and enter a fridge at 5° C. during night, to decrease warmth in the substrate and chill the plants. The next morning, the plants were moved from the fridge to a freezing container. […]
One day and one week after frost, the flowers on the marked branches were assessed. […]
When the fruits ripen, the ripe fruits were picked. […] Also, the number of fruits were counted and the weight was measured. […]

For `Cc1cccc(C(=O)Nc2ccc(Oc3ccc4c(c3)C(=O)NC4=O)cc2)c1` [Compound A68, N-(4-((1,3-dioxoisoindolin-5-yl)oxy)phenyl)-3-methylbenzamide], which hypocotyl elongation [1] is on record?
The hypocotyl elongation was “promotes”.

And the lateral root number [2]?
Its lateral root number is “increases”.

And the primary root growth [2]?
Its primary root growth is “suppresses”.

What about the “tolerance to mild osmotic stress” value (Arabidopsis seedlings) of the same molecule?
The value was “enhance tolerance”.

What about the “efficacy to decrease frost damage on strawberry” value ([3]; A68 suspended in acetone, foliar spray) of the same molecule?
Its value is “clear indications of efficacy”.

What about the optimal dose-rate ([3]; maximum efficacy of the Gauss-curve) of the same molecule?
The optimal dose-rate was “around 1000 mg/ha”.
